# Results taken from PubChem BioAssay (NCI).
# “And” between values parts separate entries of the source, which are not always exact repeats. Equal values may be shown once.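 Cells were grown in 96-well plates and exposed to each compound for 48 hours at five concentrations; endpoints were interpolated linearly between bracketing concentrations, or set to the highest concentration if not reached. GI50: concentration for 50% inhibition of growth. TGI denotes the concentration required for complete inhibition of growth.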
# Tests used:
# Experiment in all cases: NCI anticancer screen, dose series, 48 h
# ACHN renal = system: ACHN renal
# SF-539 CNS = system: SF-539 CNS
# UACC-257 melanoma = system: UACC-257 melanoma
# SR leukemia = system: SR leukemia
# SK-OV-3 ovarian = system: SK-OV-3 ovarian
# M14 melanoma = system: M14 melanoma
# UACC-62 melanoma = system: UACC-62 melanoma
# HOP-92 NSCLC = system: HOP-92 NSCLC
# LOX IMVI melanoma = system: LOX IMVI melanoma
# MDA-MB-435 = system: MDA-MB-435
Structure (SMILES),GI50 (ACHN renal),TGI (ACHN renal),GI50 (SF-539 CNS),TGI (SF-539 CNS),GI50 (UACC-257 melanoma),TGI (UACC-257 melanoma),GI50 (SR leukemia),TGI (SR leukemia),GI50 (SK-OV-3 ovarian),TGI (SK-OV-3 ovarian),GI50 (M14 melanoma),TGI (M14 melanoma),GI50 (UACC-62 melanoma),TGI (UACC-62 melanoma),GI50 (HOP-92 NSCLC),TGI (HOP-92 NSCLC),GI50 (LOX IMVI melanoma),TGI (LOX IMVI melanoma),GI50 (MDA-MB-435),TGI (MDA-MB-435)
NC(=O)c1ccc(I)c(N)c1,> 100 µM,> 100 µM,> 100 µM,> 100 µM,> 100 µM,> 100 µM,> 100 µM,> 100 µM,> 100 µM,> 100 µM,> 100 µM,> 100 µM,> 100 µM,> 100 µM,> 100 µM,> 100 µM,> 100 µM,> 100 µM,> 100 µM,> 100 µM
CC[CH2][Sn]([CH2]CC)([O]C(=O)c1cccnc1SC)[O][Sn]([CH2]CC)([CH2]CC)[O]C(=O)c1cccnc1SC,0.427 µM,0.97 µM,0.468 µM,1.24 µM,0.594 µM,1.72 µM,0.214 µM,12.1 µM,1.53 µM,3.61 µM,0.513 µM,1.38 µM,0.343 µM,0.809 µM,0.342 µM,0.829 µM,0.23 µM,0.567 µM,1.54 µM,2.89 µM
O=C1CCCCN1CCCCC#Cc1ccccc1C#Cc1ccc([N+](=O)[O-])cc1,3.44 µM,11.3 µM,3.13 µM,12.7 µM,2.89 µM,8.24 µM,0.0255 µM,2.14 µM,1.57 µM,6.47 µM,5.16 µM,19.3 µM,5.77 µM,20.3 µM,4.39 µM,27.4 µM,2.79 µM,8.87 µM,1.68 µM,4.83 µM
CC[C@@H]1CN(C)[C@H]2Cc3c([nH]c4ccccc34)C(=O)C[C@H]1C2C(=O)OC (some centres not stated),,> 100 µM,,> 100 µM,,> 100 µM,,> 100 µM,,> 100 µM,,> 100 µM,,> 100 µM,,> 100 µM,,> 100 µM,,> 100 µM
CCN(CC)CCOc1ccc(/C(=C(\Cl)c2ccccc2)c2ccccc2)cc1,6.4 µM and 4.27 µM,13.1 µM and 16.5 µM,1.77 µM and 1.87 µM,5.49 µM and 4.29 µM,0.989 µM and 1.97 µM,2.09 µM and 4.04 µM,1.9 µM and 2.3 µM,9.16 µM and 8.36 µM,5.38 µM and 4.67 µM,11.5 µM and 17.2 µM,1.03 µM and 1.73 µM,2.04 µM and 3.44 µM,1.04 µM and 2.15 µM,2.33 µM and 4.88 µM,1.58 µM,5.4 µM,0.916 µM and 1.67 µM,1.89 µM and 3.22 µM,1.54 µM and 2.2 µM,5.78 µM and 7.08 µM
C=C1C(=O)O[C@H]2[C@H]1CC/C(COC(=O)c1ccc3ccccc3c1)=C\CC[C@@]1(C)O[C@@H]21,1.1 µM,2.32 µM,0.838 µM,2.23 µM,1.39 µM,2.78 µM,0.336 µM,> 26.8 µM,3.51 µM,10.8 µM,1.13 µM,2.68 µM,1.22 µM,2.53 µM,0.301 µM,1.81 µM,0.406 µM,1.46 µM,1.1 µM,2.45 µM
CCN(CC)c1ccc(/C=C/c2ccc3cc(C)ccc3[n+]2CC)cc1,0.336 µM,5.67 µM,0.172 µM,10.9 µM,0.116 µM,1.28 µM,0.09 µM,2.28 µM,0.141 µM,0.732 µM,0.182 µM,1.63 µM,0.152 µM,1.37 µM,0.147 µM,0.87 µM,0.0666 µM,1.2 µM,0.113 µM,1.28 µM
COc1ccc(-c2cc(=O)c3c(OC)c(OC)c(OC)cc3o2)cc1,,> 100 µM,,> 100 µM,,> 100 µM,,> 100 µM,,88.2 µM,,> 100 µM,,> 100 µM,,79.9 µM,,81.5 µM,,> 100 µM
COC(=O)[C@]12CC[C@@H](C)[C@H](C)[C@@H]1C1=CC[C@@H]3[C@@]4(C)C/C(=N\O)[C@H](O)[C@@]5(C)COC(=C45)C[C@@]3(C)[C@]1(C)CC2,2.58 µM,7.41 µM,9.05 µM,22.4 µM,18.6 µM,34.5 µM,2.33 µM,5.77 µM,16.6 µM,30.5 µM,14.2 µM,27.7 µM,12.6 µM,27.1 µM,2.98 µM,10.3 µM,4.6 µM,17 µM,8.28 µM,22.2 µM
COc1ccc(-c2cnnc3c(-c4cccc(C(F)(F)F)c4)cnn23)cc1,3.52 µM,> 100 µM,3 µM,> 100 µM,6.44 µM,> 100 µM,> 100 µM,> 100 µM,3.5 µM,> 100 µM,> 100 µM,> 100 µM,4.01 µM,> 100 µM,,2.85 µM,> 100 µM,> 100 µM,5.04 µM,> 100 µM
C[C@@H]1OC(O)[C@@H](F)[C@H](O)[C@@H]1O (some centres not stated),> 100 µM,> 100 µM,> 100 µM,> 100 µM,> 100 µM,> 100 µM,> 100 µM,> 100 µM,> 100 µM,> 100 µM,> 100 µM,> 100 µM,> 100 µM,> 100 µM,> 100 µM,> 100 µM,> 100 µM,> 100 µM,> 100 µM,> 100 µM
Oc1ccc(NCc2nc3ccccc3[nH]2)cc1,> 100 µM,> 100 µM,51.7 µM,> 100 µM,88 µM,> 100 µM,53.8 µM,> 100 µM,32.1 µM,> 100 µM,> 100 µM,> 100 µM,70.5 µM,> 100 µM,12.8 µM,53 µM,73.9 µM,> 100 µM,> 100 µM,> 100 µM
OCc1c[nH]c2ccccc12,24.4 µM,86.4 µM,19.3 µM,46.1 µM,22.9 µM,74 µM,30.2 µM,77.4 µM,26.3 µM,98.9 µM,23.4 µM,54.1 µM,15.3 µM,35.8 µM,9.35 µM,63.5 µM,16.2 µM,32.7 µM,19.8 µM,48.2 µM
N#CSc1c[nH]c2cccc(/C=C/C(=O)/C=C(/C=C/c3cccc4[nH]cc(SC#N)c34)OB(F)F)c12,0.389 µM,1.72 µM,1.18 µM,4.27 µM,1.98 µM,10.9 µM,0.345 µM,> 100 µM,9.74 µM,41.5 µM,0.558 µM,3.08 µM,0.628 µM,2.56 µM,0.309 µM,1.45 µM,0.243 µM,0.677 µM,0.27 µM,0.869 µM
O/N=C/C1c2ccccc2-c2ccccc21,,32.2 µM,,31 µM,,34 µM,,51.7 µM,,36.2 µM,,32.7 µM,,30.2 µM,,28 µM,,63.3 µM,,34.3 µM
COc1cc2c(c(O)c1Br)C(=O)c1c(O)cc(C[C@H](C)O)cc1[C@H]2[C@H]1c2cc(C[C@H](C)O)cc(O)c2C(=O)c2c1cc(OC)c(Br)c2O,2.38 µM and 10.5 µM,9.27 µM and 23.1 µM,2.66 µM and 3.67 µM,14.8 µM and 13.6 µM,11.2 µM and 19.1 µM,39.8 µM and 67.7 µM,3.04 µM and 3.98 µM,67.5 µM and > 100 µM,11.6 µM and 24.3 µM,47.1 µM and 89.8 µM,11.4 µM and 20.9 µM,45.8 µM and > 100 µM,2.47 µM and 17.5 µM,13.7 µM and 90.7 µM,5.31 µM and 9.42 µM,32.3 µM and 39.6 µM,6.57 µM and 11.4 µM,16.2 µM and 34.4 µM,5.76 µM and 13.4 µM,36.1 µM and 37.6 µM
C=CC(=O)N1CC2(CCN(c3nc(OC4CCN(CCCOC)CC4)nc4c(OCC(F)(F)F)c(-c5c(C)ccc6[nH]ncc56)c(C5CC5)cc34)CC2)C1,2.11 µM,4.44 µM,1.65 µM,3.07 µM,3.03 µM,12.4 µM,1.75 µM,4.77 µM,8.57 µM,23.8 µM,2 µM,3.97 µM,5.27 µM,18.9 µM,3.53 µM,11 µM,1.7 µM,3.15 µM,1.85 µM,4 µM
Cn1c(=O)c2[nH]c(SCc3ccccn3)nc2n(C)c1=S,,> 100 µM,,> 100 µM,,> 100 µM,,> 100 µM,,66.4 µM,,> 100 µM,,> 100 µM,,> 100 µM,,> 100 µM,,> 100 µM
COc1cc(C2NC(=O)c3ccccc3N2)ccc1OCCCCCOc1c(OC)cc(C2=NOC(c3cc(OC)c(OC)c(OC)c3)C2)cc1OC (configuration not stated),0.556 µM,> 100 µM,19.4 µM,84.7 µM,0.296 µM,69.9 µM,0.947 µM,> 100 µM,31.1 µM,> 100 µM,20.4 µM,> 93 µM,0.506 µM,> 100 µM,60.2 µM,> 100 µM,16.7 µM,> 100 µM,0.499 µM,> 100 µM
O=c1[nH]ncc(Br)c1Br,1.79 µM,3.17 µM,2.42 µM,6.31 µM,2 µM,4.84 µM,0.911 µM,3.9 µM,13.9 µM,26.8 µM,2.09 µM,4.23 µM,1.27 µM,2.58 µM,1.79 µM,3.31 µM,1.65 µM,3.06 µM,2.2 µM,6.2 µM
CN1CCN(C(=O)OCc2nc3c(N4CCOCC4)nc(Cl)nc3n2C)CC1,0.831 µM,2.11 µM,1.39 µM,2.73 µM,1.39 µM,3.22 µM,0.241 µM,1.33 µM,6.15 µM,18.8 µM,1.19 µM,2.65 µM,1.38 µM,2.8 µM,0.675 µM,2.23 µM,0.579 µM,1.99 µM,1.16 µM,2.44 µM
O=C1c2cc(Cl)ccc2S(=O)(=O)c2c(NCCCNCCO)nc3ccccc3c21,0.493 µM,1.63 µM,1.6 µM,3.13 µM,1.55 µM,3.42 µM,0.466 µM,5.11 µM,8.54 µM,20.9 µM,1.95 µM,4.9 µM,1.61 µM,3.35 µM,1.01 µM,2.44 µM,1.58 µM,2.95 µM,1.5 µM,3.13 µM
CC(=O)OC[C@]1(C)C=C2C(=O)[C@](C)(O)C3(CC3)C(C)=C2[C@H]1O,0.0221 µM,0.0501 µM,0.166 µM,0.388 µM,0.28 µM,1.12 µM,0.0667 µM,> 100 µM,0.194 µM,1.11 µM,0.0899 µM,,0.0894 µM,0.302 µM,0.148 µM,0.623 µM,0.0875 µM,0.65 µM,0.136 µM,0.587 µM
Oc1ccc2ccccc2c1N=Nc1nccs1,0.27 µM,14 µM,2.33 µM,13.2 µM,3.1 µM,16.4 µM,0.111 µM,,1.98 µM,41.2 µM,2.97 µM,18.3 µM,2.3 µM,24.3 µM,0.389 µM,> 48.8 µM,0.328 µM,17.5 µM,3.03 µM,27.9 µM
CC(=O)OCCN1c2ccccc2Sc2cnccc21,,> 10 µM,,> 10 µM,,> 10 µM,,> 10 µM,,> 10 µM,,> 10 µM,,> 10 µM,,> 10 µM,,> 10 µM,,> 10 µM
CC1(C)OC2[C@@H](CNC(=O)NC(=O)NC(=O)CI)O[C@@H](n3cnc4c(NC(=O)Nc5ccccc5)ncnc43)[C@H]2O1 (some centres not stated),6.94 µM,14.7 µM,4.75 µM,10.9 µM,9.91 µM,17.8 µM,0.954 µM,2.3 µM,22.2 µM,> 50 µM,6.95 µM,14.3 µM,8.44 µM,17.1 µM,1.4 µM,4.23 µM,0.907 µM,1.74 µM,7.57 µM,14.8 µM
